# Laboratory results: ChEMBL document CHEMBL4396975, “Sodium Channel Modulators and Their Method of Use” (ACS Med Chem Lett, 2019)
# pIC50: −log10 of the molar value.
# Target: Sodium channel protein type 9 subunit alpha (Homo sapiens, UniProt Q15858)
# Assay: Inhibition of human Nav1.7 expressed in HEK293 cells by automated electrophysiological patch clamp assay
# Format: cell-based
# Sequence of Sodium channel protein type 9 subunit alpha (Q15858 whole entry): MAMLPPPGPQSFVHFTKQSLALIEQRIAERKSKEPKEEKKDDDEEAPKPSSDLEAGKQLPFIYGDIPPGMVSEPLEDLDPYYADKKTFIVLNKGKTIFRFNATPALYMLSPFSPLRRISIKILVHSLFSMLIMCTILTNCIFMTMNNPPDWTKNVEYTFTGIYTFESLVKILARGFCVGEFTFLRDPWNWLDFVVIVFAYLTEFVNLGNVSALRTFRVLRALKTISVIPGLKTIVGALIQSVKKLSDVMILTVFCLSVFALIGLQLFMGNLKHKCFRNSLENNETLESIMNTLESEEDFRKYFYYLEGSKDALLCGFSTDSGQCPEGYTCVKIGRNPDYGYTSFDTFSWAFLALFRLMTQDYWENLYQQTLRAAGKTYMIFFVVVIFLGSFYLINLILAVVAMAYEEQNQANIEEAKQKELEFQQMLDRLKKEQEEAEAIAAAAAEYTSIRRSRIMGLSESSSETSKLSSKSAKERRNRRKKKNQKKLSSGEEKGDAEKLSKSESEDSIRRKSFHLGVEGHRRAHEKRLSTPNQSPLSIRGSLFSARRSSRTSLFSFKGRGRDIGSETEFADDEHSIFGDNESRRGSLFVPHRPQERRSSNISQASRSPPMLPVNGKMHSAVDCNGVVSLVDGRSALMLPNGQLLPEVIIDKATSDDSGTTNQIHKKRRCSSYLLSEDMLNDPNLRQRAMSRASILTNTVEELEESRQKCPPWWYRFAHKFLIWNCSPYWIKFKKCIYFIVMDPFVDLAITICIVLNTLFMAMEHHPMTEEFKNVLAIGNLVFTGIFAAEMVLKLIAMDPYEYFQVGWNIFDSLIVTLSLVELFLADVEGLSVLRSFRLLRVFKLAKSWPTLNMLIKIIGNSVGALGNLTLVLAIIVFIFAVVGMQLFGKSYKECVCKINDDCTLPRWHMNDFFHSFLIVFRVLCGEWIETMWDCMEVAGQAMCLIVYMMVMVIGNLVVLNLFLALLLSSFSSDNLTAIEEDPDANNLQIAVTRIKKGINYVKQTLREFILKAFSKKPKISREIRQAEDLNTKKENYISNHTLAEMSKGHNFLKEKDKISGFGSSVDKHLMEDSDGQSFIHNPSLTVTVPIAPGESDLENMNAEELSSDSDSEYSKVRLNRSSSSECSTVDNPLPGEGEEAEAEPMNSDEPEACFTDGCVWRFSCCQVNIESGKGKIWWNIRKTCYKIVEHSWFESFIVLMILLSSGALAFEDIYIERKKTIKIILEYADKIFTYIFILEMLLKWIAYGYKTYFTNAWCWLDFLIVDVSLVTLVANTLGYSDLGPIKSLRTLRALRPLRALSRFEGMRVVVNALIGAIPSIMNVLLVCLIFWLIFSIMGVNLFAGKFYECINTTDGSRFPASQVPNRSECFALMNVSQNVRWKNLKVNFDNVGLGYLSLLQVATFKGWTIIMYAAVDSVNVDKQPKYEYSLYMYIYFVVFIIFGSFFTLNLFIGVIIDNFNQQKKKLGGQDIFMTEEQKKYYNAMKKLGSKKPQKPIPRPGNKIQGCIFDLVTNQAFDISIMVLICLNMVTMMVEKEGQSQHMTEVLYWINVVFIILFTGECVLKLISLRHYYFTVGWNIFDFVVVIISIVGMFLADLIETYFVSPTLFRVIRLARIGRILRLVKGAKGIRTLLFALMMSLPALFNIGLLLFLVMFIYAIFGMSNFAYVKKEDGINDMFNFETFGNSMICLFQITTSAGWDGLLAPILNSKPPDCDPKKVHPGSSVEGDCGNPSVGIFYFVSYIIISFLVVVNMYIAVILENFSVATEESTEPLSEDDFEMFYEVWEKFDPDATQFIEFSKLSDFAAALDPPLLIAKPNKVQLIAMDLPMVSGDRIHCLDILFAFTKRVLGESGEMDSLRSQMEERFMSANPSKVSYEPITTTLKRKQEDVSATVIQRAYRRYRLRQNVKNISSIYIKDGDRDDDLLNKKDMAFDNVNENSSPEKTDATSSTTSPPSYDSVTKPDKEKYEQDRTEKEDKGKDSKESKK
row,pIC50,SMILES
1,5.92,Cc1cc(C(F)(F)F)ccc1-n1nnnc1Oc1ccc([C@H]2CC[C@@H](C(N)=O)N2)cc1
2,5.96,NC(=O)[C@@H]1CC[C@H](c2ccc(Oc3nnnn3-c3ccccc3OC(F)(F)F)cc2)N1
3,6.14,Cc1ccc(Cl)cc1-n1nnnc1Oc1ccc([C@H]2CC[C@@H](C(N)=O)N2)cc1
4,6.24,NC(=O)[C@@H]1CC[C@H](c2ccc(Oc3nnnn3-c3cc(F)ccc3OC(F)(F)F)cc2)N1
5,5.74,CN(C)C(=O)[C@@H]1CC[C@H](c2ccc(Oc3nnnn3-c3ccccc3OC(F)(F)F)cc2)N1
6,6.17,NC(=O)[C@@H]1CC[C@H](c2ccc(Oc3nnnn3-c3cc(Cl)ccc3OC(F)(F)F)cc2)N1

# Second part, the compound before the results:
row,SMILES,pIC50
1,CC(C)(C)c1ccccc1-n1nnnc1Oc1ccc([C@H]2CC[C@@H](C(N)=O)N2)cc1,5.82
2,Cc1cccc(C)c1-n1nnnc1Oc1ccc([C@H]2CC[C@@H](C(N)=O)N2)cc1,6.05
3,CN1[C@@H](c2ccc(Oc3nnnn3-c3ccccc3C(F)(F)F)cc2)CC[C@H]1C(N)=O,5.74
4,COc1ccc(C)c(-n2nnnc2Oc2ccc([C@H]3CC[C@@H](C(N)=O)N3)cc2)c1,5.96
